Laboratory results published in patent US20010041716A1, “Compositions and methods for locally treating inflammatory diseases” (priority 1999, published 2001).
In brackets after ≈: the same amount, converted by molar mass. Like-named read-outs stand apart in the source and are kept apart here. Marks after values point to notes of the source that are not given here.

What was measured:
[1] = for Lag time TL = SD / Permeability coefficient P ± SD × 10^−3: pH 6
Description: Skin Preparation and Permeation: The human cadaver skin used in the permeation studies was obtained from the Anatomical Donation Program at the University of Michigan. Vertical Franz diffusion cells with a 4 ml capacity receptor compartment and a 0.8 cm^2 diffusion area were used in the permeation studies. The epidermal layer of the skin was mounted carefully onto the lower half of the cells of the difflusion apparatus with the stratum corneum facing up. The receptor compartments were filled with isotonic phosphate buffer (pH 6.4). The temperature of the cell system was maintained at 32° C. by circulating water from a constant temperature water bath through the jacket of the lower compartment of each cell assembly. To begin an experiment, the donor compartment was charged with 300 μl of fresh prepared saturated solution of the drug and covered immediately with Parafilm to prevent any significant evaporation of volatile components of the applied medium during the absorption experiment. At predetermined times, samples were taken and were directly assayed by HPLC to determine the drug concentration of each. Care was taken to maintain skin conditions.
The permeability coefficient for a given run was calculated from Fick's law of diffuision: [formula]
dC/dt is the steady-state slope of a plot of the amount of substance which had penetrated the skin against time in terms of jig/h. It was determined by taking the ratio of the total amount permeated in an interval of time to the length of the time interval.
A is the difflusional area, which was 0.8 cm^2.
ΔC is the concentration differential existing across the membrane. This was effectively equal to the saturation concentration in the donor phase (μg/ml) as, through total exchange sampling, a near zero receiver concentration (sink condition) was closely approximated. AC is, in effect, the thermodynamic force driving mass transfer. The maximum driving force is seen at the saturation solubility (excluding supersaturation).
VR is the volume of the receiver compartment (4 ml).
The permeation parameters (flux, J; lag time, TL and permeability coefficient, P) of thalidomide and its N-alkyl analogs from their saturated aqueous solutions (pH 6.0) and an ethanol/water/octanol vehicle are summarized in Table 4. The permeation data were plotted as the cumulative amount of drug penetrated through skin as a function of time. The steady-state flux was determined from the slope of the linear portion of the cumulative amount-time plot. The lag time (TL) was determined by extrapolating the linear portion of the curve to its intersection with the time axis. […] A bar plot of the mean steady-state flux and standard deviations (SD) for thalidomide and its N-alkyl analogs from water can be seen in FIG. 5. […] Typical cumulative amount permeated-time profiles for thalidomide and its N-alkyl analogs from the ethanol/water/octanol (Formulation C) vehicle are shown in FIG. 6.

[2] = 25° C.
[3] = n-octanol / phosphate buffer (pH 6.4)
[4] = Description: Differential Thermal Analysis: The heat of fusion (ΔHf) and the entropy of fusion (ΔSf) of thalidomide and its N-alkyl analogs were determined with a Perkin-Elmer DSC7 Differential Scanning Calorimeter (DSC), which was calibrated with an indium standard.
Using this surmise, the solubility parameters for all the solutes were calculated. […] In each case the solutions are considered ideal at the peak of their parabolas.

TNFα = settings: PBMCs stimulated in vitro with LPS; previous studies; cited from earlier work

Lag time TL = SD [1] [h]	Permeability coefficient P ± SD × 10^−3 [1]	Solubility, Hexane ± SD [2] [µg/mL]	Solubility, Water (pH 6.4) ± SD [2] [μg/ml]	Koct ± SD (octanol/water partition coefficient) [3]	Activity of solid phase a2^s, ΔCp = 0 [4]	Activity of solid phase a2^s, ΔCp = ΔSp [4]	Ln X2,ideal, ΔCp = 0 [4]	Ln X2,ideal, ΔCp = ΔSr [4]	Solubility parameter δ2 (Hexane), ΔCp = 0 [4]	Solubility parameter δ2 (Hexane), ΔCp = ΔSr [4]	Maximum steady-state flux [1] [μg/cm^2/h]	Solubility, Water (pH 6.4) ± SD ([2]; listed as N-methyl thalidomide) [μg/ml]	Solubility, Water (pH 6.4) ± SD ([2]; listed as thalidomide) [μg/ml]	SMILES	Inhibition of TNFα production (TNFα)
3 ± 1.6	19.68 ± 6.31 × 10^−3 (cm/h)	220 ± 10 (≈ 670 µM)	57.3 ± 1.46	129 ± 1.05	1.29 × 10^−1	1.64 × 10^−1	−2.05	−1.81	11.2 (cal/cm^3)^½	11.2 (cal/cm^3)^½				CCCCCN1C(=O)CCC(N2C(=O)c3ccccc3C2=O)C1=O (stereo not shown) [N-Pentyl Thalidomide, N-pentyl thalidomide]	
2.8 ± 0.5	1.17 ± 0.22 × 10^−3 (cm/h)	90 ± 0 (≈ 331 µM)	275.9 ± 6.39	14.1 ± 1.05	1.03 × 10^−1	1.54 × 10^−1	−2.27	−1.87	12.2 (cal/cm^3)^½	12.3 (cal/cm^3)^½	11.47	276		CN1C(=O)CCC(N2C(=O)c3ccccc3C2=O)C1=O (stereo not shown) [N-Methyl Thalidomide, N-methyl thalidomide]	
2.2 ± 1.4	<0.16 ± 0.00^b) × 10^−3 (cm/h)	0.1 ± 0 (≈ 0.387 µM)	52.1 ± 1.49	3.09 ± 1.03	1.29 ×	8.07 ×	−6.65	−4.82	13.2 (cal/cm^3)^½	13.7 (cal/cm^3)^½			52	O=C1CCC(N2C(=O)c3ccccc3C2=O)C(=O)N1 (stereo not shown) [Thalidomide, a-phthalimidoglutarimide, reference compound]	partially inhibit TNFα production
